One assay relates to LCLC97TM1. In words: LCLC97TM1 proliferation assay. It is filed as cell-based. Particulars: read-out: LCLC97TM1 proliferation assay, EC50 [M] (arithmetic mean).
Another assay relates to ZR-75-1 cells. As to the kind of experiment: ZR-75-1 proliferation assay. The conditions noted are these: Alamar Blue, read-out: ZR75-1 proliferation assay, EC50 [M] (arithmetic mean). It is filed as cell-based. The text has this:
For compound characterization cell survival assays were routinely run in two cell lines. ZR-75-1 is a breast carcinoma cell line containing a focal KAT6A amplification and high KAT6A protein expression. Proliferation of this cell line is inhibited upon treatment with KAT6A inhibitors. As a negative control cell line MDA-MB-436 were used. These cells carry a […] deletion of the KAT6A gene, have a low KAT6A protein expression and are not growth inhibited upon treatment with KAT6A inhibitors.
For measurements cell lines were plated at the below indicated concentration per […] in 96-well plates in a humidified incubator at 37° C. and 5% CO2.
ZR-75-1 (ATCC, CRL-1500; breast carcinoma); 3000 cells per well; culture medium: RPMI 1640 (Biochrom #FG 1215) medium containing 2.5% FBS (Biochrom #S0615).
Each sample was prepared as triplicate and rim wells were excluded. Plates were incubated at 37° C. and 5% CO2 for 144 h. Cell viability was measured by adding 10 μL of Alamar Blue Reagent (Invitrogen #DAL 1100) and plates were incubated for 2 h at 37° C. and 5% CO2. Fluorescence was measured at 590 nm wavelength with a Tecan Spark or Victor X3 MTP-Reader (PerkinElmer).
Background: Alamar Blue is a resazurin reagent that responds to reducing activity.

The test system of a further assay is MDA-MB-436 cells. As to the kind of experiment: MDA-MB-436 proliferation assay (negative control cell line). It is filed as cell-based. The conditions noted are these: 144 h, Alamar Blue, read-out: MDA-MB-436 proliferation assay, EC50 [M] (arithmetic mean). Summed up: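 MDA-MB-436 cells (KAT6A deletion, low KAT6A protein) seeded at 3000 cells/well in DMEM/Ham's F12 with 2.5% FBS, treated in triplicate for 144 h at 37° C, 5% CO2. Viability read by Alamar Blue fluorescence at 590 nm after 2 h.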

Assay [1] deals with T1, Recombinant human GST-tagged Kat6b protein (431-end) (Homo sapiens, UniProt Q8WYB5).
T1 construct: Kat6b protein (431-end, N-terminal GST-tag); GST (N)
T1 sequence (Q8WYB5 431-2073): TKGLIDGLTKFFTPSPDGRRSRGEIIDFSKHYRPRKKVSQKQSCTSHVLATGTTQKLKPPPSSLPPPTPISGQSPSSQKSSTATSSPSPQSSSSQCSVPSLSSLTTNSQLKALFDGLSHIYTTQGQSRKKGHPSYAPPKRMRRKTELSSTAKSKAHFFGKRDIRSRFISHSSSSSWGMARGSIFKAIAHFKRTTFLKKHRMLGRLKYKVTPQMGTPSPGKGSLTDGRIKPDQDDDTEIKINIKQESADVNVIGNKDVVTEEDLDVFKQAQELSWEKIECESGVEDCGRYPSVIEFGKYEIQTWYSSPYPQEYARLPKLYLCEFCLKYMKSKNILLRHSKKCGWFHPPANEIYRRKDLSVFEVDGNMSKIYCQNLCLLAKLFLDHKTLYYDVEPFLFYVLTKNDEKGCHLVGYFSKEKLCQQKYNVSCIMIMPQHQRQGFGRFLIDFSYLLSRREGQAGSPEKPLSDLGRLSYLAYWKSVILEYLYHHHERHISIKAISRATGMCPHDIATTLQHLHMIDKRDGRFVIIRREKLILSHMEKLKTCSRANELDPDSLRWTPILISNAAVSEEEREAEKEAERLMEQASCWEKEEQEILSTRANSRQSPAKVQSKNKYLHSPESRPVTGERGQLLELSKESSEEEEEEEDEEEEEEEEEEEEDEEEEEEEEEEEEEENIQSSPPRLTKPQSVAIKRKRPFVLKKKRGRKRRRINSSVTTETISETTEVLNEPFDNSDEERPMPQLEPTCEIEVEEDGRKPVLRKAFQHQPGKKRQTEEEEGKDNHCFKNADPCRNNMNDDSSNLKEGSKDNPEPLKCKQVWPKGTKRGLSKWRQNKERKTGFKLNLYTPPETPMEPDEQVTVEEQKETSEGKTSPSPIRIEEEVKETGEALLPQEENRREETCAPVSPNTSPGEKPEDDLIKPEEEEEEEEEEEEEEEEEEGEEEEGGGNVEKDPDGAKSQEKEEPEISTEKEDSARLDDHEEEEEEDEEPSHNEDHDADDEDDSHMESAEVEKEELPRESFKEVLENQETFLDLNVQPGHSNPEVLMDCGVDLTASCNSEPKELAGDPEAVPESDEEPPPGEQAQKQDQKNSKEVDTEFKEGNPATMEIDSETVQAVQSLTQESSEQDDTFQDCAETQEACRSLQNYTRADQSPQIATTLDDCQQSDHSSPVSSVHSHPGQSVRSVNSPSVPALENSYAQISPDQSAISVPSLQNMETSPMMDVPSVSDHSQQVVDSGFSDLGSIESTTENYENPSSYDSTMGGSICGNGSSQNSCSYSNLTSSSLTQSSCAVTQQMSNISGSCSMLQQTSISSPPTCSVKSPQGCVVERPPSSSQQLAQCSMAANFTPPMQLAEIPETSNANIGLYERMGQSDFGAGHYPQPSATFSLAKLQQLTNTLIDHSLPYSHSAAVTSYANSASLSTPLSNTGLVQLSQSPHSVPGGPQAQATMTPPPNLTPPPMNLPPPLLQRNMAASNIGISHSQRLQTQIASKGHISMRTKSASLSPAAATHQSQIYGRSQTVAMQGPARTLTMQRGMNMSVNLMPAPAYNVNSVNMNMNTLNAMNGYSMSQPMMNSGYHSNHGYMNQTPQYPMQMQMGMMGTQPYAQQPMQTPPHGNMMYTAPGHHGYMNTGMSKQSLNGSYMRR
As to the kind of experiment: Kat6b activity assay (TR-FRET, acetylation of Histone-H4-derived peptide). It is filed as biochemical. The conditions noted are these: 30 mins at 22° C., 500 nM H4 peptide, 600 nM Acetyl Coenzyme A, read-out: KAT6B activity assay IC50 [mol/l] (arithmetic mean). As to the method:
Kat6b inhibitory activities of the compounds described in the present invention were quantified using a Fluorescence Resonance Energy Transfer (TR-FRET) assay which measures acetylation of a synthetic, biotinylated Histone-H4-derived peptide by the enzyme.
In this case 50 nl DMSO were used instead of compounds. […] IC50 values were determined by regression analysis based on a 4 parameter equation (minimum, maximum, ICM, Hill; Y=Max+(Min−Max)/(1+(X/ICso) Hill) using the Screener Software (Genedata).
In general terms: In TR-FRET formats the signal depends on donor and acceptor labels being close together.

The target in assay [2] is T2, Recombinant human His-tagged Kat6a protein (amino acids 194-810) (Homo sapiens, UniProt Q92794).
T2 construct: Kat6a protein (amino acids 194-810); His
T2 sequence (Q92794 194-810): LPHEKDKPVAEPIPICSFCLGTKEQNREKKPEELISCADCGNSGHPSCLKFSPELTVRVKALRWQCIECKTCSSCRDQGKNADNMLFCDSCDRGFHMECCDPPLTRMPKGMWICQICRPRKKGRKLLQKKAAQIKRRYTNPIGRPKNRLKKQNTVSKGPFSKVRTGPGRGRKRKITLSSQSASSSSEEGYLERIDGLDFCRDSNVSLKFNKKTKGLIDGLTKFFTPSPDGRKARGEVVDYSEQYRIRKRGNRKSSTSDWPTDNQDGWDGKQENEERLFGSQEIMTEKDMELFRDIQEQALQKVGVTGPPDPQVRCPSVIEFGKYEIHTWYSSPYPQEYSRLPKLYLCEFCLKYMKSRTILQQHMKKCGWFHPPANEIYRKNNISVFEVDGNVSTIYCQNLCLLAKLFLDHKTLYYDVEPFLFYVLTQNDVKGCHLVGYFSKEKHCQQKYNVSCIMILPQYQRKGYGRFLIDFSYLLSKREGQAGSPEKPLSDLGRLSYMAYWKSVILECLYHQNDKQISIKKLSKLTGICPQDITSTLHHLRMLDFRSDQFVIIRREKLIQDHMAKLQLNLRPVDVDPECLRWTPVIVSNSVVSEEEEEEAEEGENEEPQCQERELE
As to the kind of experiment: Kat6a activity assay (TR-FRET, acetylation of Histone-H4-derived peptide). It is filed as biochemical. The conditions noted are these: 60 mins at 22° C., 220 nM H4 peptide, 600 nM Acetyl Coenzyme A, read-out: KAT6A - DPF/HAT domain IC50 [mol/l] (arithmetic mean).

Assay [3] relates to ESR1 transcription in MVLN cells. In words: MVLN reporter assay: repression of ESR1 transcription (luciferase signal). It is filed as cell-based. The conditions noted are these: luciferase signal after 24 h, read-out: MVLN reporter assay, IC50 [M] (arithmetic mean). Summed up: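 MVLN cells, expressing ER and stably carrying a vitellogenin A2 ERE-luciferase reporter, treated with compound in duplicate; luciferase read after 24 h with Steadylite plus. Cell density checked in parallel by Alamar Blue fluorescence (530/590 nm, 2 h) before the luciferase read.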
Background: Reporter assays use an easily measured gene product as a stand-in for the process of interest.

[4] abbreviates: Homo sapiens, LCLC-97TM1, LCLC97TM1.

Like-named read-outs stand apart in the source and are kept apart here.

In the case of `CCOc1ccc(C(C)CC)cc1S(=O)(=O)NC(=O)c1cc2c(F)cc(N3CCC3)cc2o1` (racemic) [Example 207, 6-(Azetidin-1-yl)-N-[(5-sec-butyl-2-ethoxyphenyl)sulfonyl]-4-fluoro-1-benzofuran-2-carboxamide (rac)], the EC50 in the assay on LCLC97TM1 (setting [4]) was 4.29e-08 M; in the assay with ZR-75-1 cells (Homo sapiens, ZR-75-1, 144 h), 1.03e-07 M; with MDA-MB-436 cells (Homo sapiens) it was more than 2e-05 M. For the same molecule, the IC50 came to 5.65 nM in assay [1]; 1.86 nM in assay [2]; 9.04e-09 M in assay [3] (Homo sapiens, MVLN, 24 h).
Consider `CC(C)c1ccc(OCC2CC2(F)F)c(S(=O)(=O)NC(=O)c2cc3c(F)cc(N4CCC4)cc3o2)c1` (racemic) [Example 231, 6-(Azetidin-1-yl)-N-((2-((2,2-difluorocyclopropyl)methoxy)-5-isopropylphenyl)sulfonyl)-4-fluorobenzofuran-2-carboxamide (rac)], for which the EC50 is 1.99e-07 M with LCLC97TM1 (setting [4]); 1.58e-07 M with ZR-75-1 cells (Homo sapiens, ZR-75-1, 144 h); more than 2e-05 M with MDA-MB-436 cells (Homo sapiens). Moreover, the IC50 in assay [1] is 28.8 nM; in assay [2], 4.22 nM; in assay [3] (Homo sapiens, MVLN, 24 h), 1.83e-08 M.
On to `CCOc1cccc(OC)c1S(=O)(=O)NC(=O)c1cc2c(F)cc(N3CCC3)cc2o1` [Example 1, 6-(Azetidin-1-yl)-N-(2-ethoxy-6-methoxybenzene-1-sulfonyl)-4-fluoro-1-benzofuran-2-carboxamide], for which the EC50 was 2.13e-07 M in the assay on LCLC97TM1 (setting [4]); 7.18e-08 M with ZR-75-1 cells (Homo sapiens, ZR-75-1, 144 h); more than 2e-05 M in the assay with MDA-MB-436 cells (Homo sapiens). The IC50 came to 20.9 nM in assay [1]; 8.61 nM in assay [2]; 3.89e-08 M in assay [3] (Homo sapiens, MVLN, 24 h).
For `CCOc1ccccc1S(=O)(=O)NC(=O)c1cc2c(F)cc(N3CCC3)cc2o1` [Example 2, 6-(Azetidin-1-yl)-N-(2-ethoxybenzene-1-sulfonyl)-4-fluoro-1-benzofuran-2-carboxamide], the EC50 with LCLC97TM1 (LCLC97TM1) was 3.38e-07 M; in the assay with ZR-75-1 cells (Homo sapiens, ZR-75-1, 144 h), 1.64e-07 M; with MDA-MB-436 cells (Homo sapiens) it was more than 2e-05 M. For the same molecule, the IC50 turned out to be 95.2 nM in assay [1]; 45.2 nM in assay [2]; 5.54e-08 M in assay [3] (Homo sapiens, MVLN, 24 h).
As to `O=C(NS(=O)(=O)c1ccccc1-c1ccccc1)c1cc2ccc(N3CCC3)cc2o1` [Example 26, 6-(Azetidin-1-yl)-N-([1,1′-biphenyl]-2-sulfonyl)-1-benzofuran-2-carboxamide], the EC50 in the assay on LCLC97TM1 (setting [4]) is 3.9e-06 M; in the assay with ZR-75-1 cells (Homo sapiens, ZR-75-1, 144 h), 5.06e-07 M; in the assay on MDA-MB-436 cells (Homo sapiens), more than 2e-05 M. Besides, the IC50 in assay [1] is 292 nM; in assay [2] it was 145 nM; in assay [3] (Homo sapiens, MVLN, 24 h) it was 3.85e-07 M.
For `CC(C)c1cccnc1S(=O)(=O)NC(=O)c1cc2c(F)cc(N3CCC3)cc2o1` [Example 79, 6-(Azetidin-1-yl)-4-fluoro-N-[3-(propan-2-yl)pyridine-2-sulfonyl]-1-benzofuran-2-carboxamide], the EC50 in the assay on LCLC97TM1 (setting [4]) is 3.9e-08 M; in the assay with ZR-75-1 cells (Homo sapiens, ZR-75-1, 144 h), 3.61e-08 M; with MDA-MB-436 cells (Homo sapiens), more than 2e-05 M. The IC50 was 13.6 nM in assay [1]; 9.58 nM in assay [2]; 2.1e-08 M in assay [3] (Homo sapiens, MVLN, 24 h).
For the molecule `CCOc1ccccc1S(=O)(=O)NC(=O)c1cc2ccc(N3CC(F)C3)cc2o1` [Example 107, N-(2-Ethoxybenzene-1-sulfonyl)-6-(3-fluoroazetidin-1-yl)-1-benzofuran-2-carboxamide], the EC50 was 9.16e-07 M with LCLC97TM1 (setting [4]) and 4.1e-07 M in the assay on ZR-75-1 cells (Homo sapiens, ZR-75-1, 144 h). Besides, the IC50 in assay [1] came to 853 nM; in assay [2], 275 nM; in assay [3] (Homo sapiens, MVLN, 24 h), 1.33e-07 M.
Consider `CCOc1ccc(C(C)(C)C)cc1S(=O)(=O)NC(=O)c1cc2c(F)cc(N3CC(F)C3)cc2o1` [Example 113, N-(5-tert-butyl-2-ethoxybenzene-1-sulfonyl)-4-fluoro-6-(3-fluoroazetidin-1-yl)-1-benzofuran-2-carboxamide], for which the EC50 was 3.7e-08 M in the assay with LCLC97TM1 (setting [4]); 2.94e-08 M with ZR-75-1 cells (Homo sapiens, ZR-75-1, 144 h); more than 2e-05 M in the assay on MDA-MB-436 cells (Homo sapiens). The IC50 in assay [1] was determined as 11.6 nM; in assay [2] it was 4.48 nM; in assay [3] (Homo sapiens, MVLN, 24 h) it was 1.08e-08 M.
For `CCOc1ccccc1S(=O)(=O)NC(=O)c1cc2c(F)cc(N3CCC3)cc2o1` [Example 126, Sodium [6-(azetidin-1-yl)-4-fluoro-1-benzofuran-2-carbonyl](2-ethoxybenzene-1-sulfonyl)azanide], the EC50 in the assay with LCLC97TM1 (LCLC97TM1) was 1.12e-06 M; in the assay with ZR-75-1 cells (144 h), 3.07e-07 M; with MDA-MB-436 cells it was more than 2e-05 M. The IC50 in assay [1] came out at 285 nM; in assay [2], 56.5 nM; in assay [3] it was 9.43e-08 M.
For `CCOc1ccc(C(C)C)cc1S(=O)(=O)NC(=O)c1cc2c(F)cc(N3CCC3)cc2o1` [Example 128, 6-(Azetidin-1-yl)-N-[2-ethoxy-5-(propan-2-yl)benzene-1-sulfonyl]-4-fluoro-1-benzofuran-2-carboxamide], the EC50 was 2.2e-07 M in the assay with LCLC97TM1 (setting [4]); 6.73e-08 M with ZR-75-1 cells (Homo sapiens, ZR-75-1, 144 h); more than 2e-05 M with MDA-MB-436 cells (Homo sapiens). The IC50 turned out to be 15.1 nM in assay [1]; 8.15 nM in assay [2]; 1.9e-08 M in assay [3] (Homo sapiens, MVLN, 24 h).
As for `CC(C)Oc1ccccc1S(=O)(=O)NC(=O)c1cc2c(F)cc(N3CCC3)cc2o1` [Example 129, 6-(Azetidin-1-yl)-4-fluoro-N-{2-[(propan-2-yl)oxy]benzene-1-sulfonyl}-1-benzofuran-2-carboxamide], the EC50 was 4.11e-07 M in the assay with LCLC97TM1 (setting [4]); 1.42e-07 M in the assay with ZR-75-1 cells (Homo sapiens, ZR-75-1, 144 h); more than 2e-05 M with MDA-MB-436 cells (Homo sapiens). The IC50 in assay [1] is 51.8 nM; in assay [2], 36.4 nM; in assay [3] (Homo sapiens, MVLN, 24 h), 2.74e-08 M.
Turning to `Cc1ccc2cccc(S(=O)(=O)NC(=O)c3cc4c(F)cc(N5CCC5)cc4o3)c2n1` [Example 130, 6-(Azetidin-1-yl)-4-fluoro-N-(2-methylquinoline-8-sulfonyl)-1-benzofuran-2-carboxamide], the EC50 in the assay with LCLC97TM1 (setting [4]) is 2.36e-07 M; in the assay with ZR-75-1 cells (Homo sapiens, ZR-75-1, 144 h) it was 8.86e-08 M; in the assay on MDA-MB-436 cells (Homo sapiens), more than 2e-05 M. Further, the IC50 amounted to 19.6 nM in assay [1]; 13.7 nM in assay [2]; 3.23e-08 M in assay [3] (Homo sapiens, MVLN, 24 h).
On to `CC(C)c1ccc(OCC2CC2)c(S(=O)(=O)NC(=O)c2cc3c(F)cc(N4CCC4)cc3o2)c1` [Example 214, 6-(azetidin-1-yl)-N-[2-(cyclopropylmethoxy)-5-isopropyl-phenyl]sulfonyl-4-fluoro-benzofuran-2-carboxamide], for which the EC50 is 5.77e-07 M in the assay on LCLC97TM1 (setting [4]) and 4.47e-07 M in the assay on ZR-75-1 cells (Homo sapiens, ZR-75-1, 144 h). Moreover, the IC50 in assay [1] amounted to 20.3 nM; in assay [2], 3.91 nM; in assay [3] (Homo sapiens, MVLN, 24 h), 2.43e-08 M.
For the molecule `CC(C)(C)c1ccc(OCC2CC2)c(S(=O)(=O)NC(=O)c2cc3c(F)cc(N4CCC4)cc3o2)c1` [Example 226, 6-(Azetidin-1-yl)-N-[(5-(tert-butyl)-2-(cyclopropylmethoxy)phenyl)sulfonyl]-4-fluorobenzofuran-2-carboxamide], the EC50 was 4.63e-08 M in the assay with LCLC97TM1 (setting [4]); 2.78e-08 M in the assay with ZR-75-1 cells (Homo sapiens, ZR-75-1, 144 h); more than 2e-05 M in the assay with MDA-MB-436 cells (Homo sapiens). The IC50 in assay [2] was found to be 1.79 nM; in assay [3] (Homo sapiens, MVLN, 24 h), 5.37e-08 M.
Consider `CC(C)(C)c1ccc(OCC(F)(F)F)c(S(=O)(=O)NC(=O)c2cc3c(F)cc(N4CCC4)cc3o2)c1` [Example 227, 6-(Azetidin-1-yl)-N-[(5-(tert-butyl)-2-(2,2,2-trifluoroethoxy)phenyl)sulfonyl]-4-fluorobenzofuran-2-carboxamide], for which the EC50 in the assay on LCLC97TM1 (setting [4]) is 1.22e-07 M; with ZR-75-1 cells (Homo sapiens, ZR-75-1, 144 h) it was 7.19e-08 M; in the assay with MDA-MB-436 cells (Homo sapiens), more than 2e-05 M. In addition, the IC50 in assay [2] worked out at 5.4 nM; in assay [3] (Homo sapiens, MVLN, 24 h), 4.82e-08 M.

The values are drawn from patent US20240279207A1, “SUBSTITUTED ACYL SULFONAMIDES FOR TREATING CANCER” (The Broad Institute, Inc., priority 2020, published 2024).
